The source of these data is publication PMC4285699 (Journal of molecular biology, 2009).

Experiment [1] has as its target T1, HIV-1 RT-associated RNase H activity (polymerase-independent) (Human immunodeficiency virus type 1 group M subtype B, UniProt P03366). In kind it is biochemical. Conditions: PFA 200 μM; chimeric substrate PBS-14r8d, 0-40 min.
For experiment [2], the target named is HIV-1 RT-associated RNase H activity (Human immunodeficiency virus type 1 group M subtype B, UniProt P03366). The experiment in a line: Pre-steady-state single turnover RNase H reactions. It is filed as biochemical. The note with it: PFA 0-10 μM, dTMP-terminated primer.
A further experiment addresses p66^501BpF/p51 RT (Human immunodeficiency virus type 1, UniProt P03366, Y1100X). The experiment in a line: FRET-based RNase H assay. It is filed as biochemical, HIV-1.
Experiment [3] addresses T1, HIV-1 RT-associated RNase H activity (polymerase-independent). The experiment can be described thus: biochemical. The note with it: IC50, primary cleavage, 600 nM chimeric hybrid labelled at 3' DNA end, 50 nM RT.
A further experiment concerns p66^AzF/p51 RT. The experiment can be described thus: FRET-based RNase H assay. It is filed as biochemical, HIV-1. The note with it: azido function at position 501 (AzF).

For `O=C(O)P(=O)(O)O` [PFA, Phosphonoformic acid], the “Inhibition of polymerase-independent RNase H cleavage” value in experiment [1] is recorded as “does not inhibit RNase H cleavage”. Also, the “Position of RNase H cleavage with increasing ligand concentration” value in experiment [2] is recorded as “biased cleavage to position -19”.
For orientation: IC50 means the point on the concentration scale where inhibition reaches its midpoint. A higher IC50 goes with a need for much substance. In the case of `CC(C)c1ccc(O)c(=O)c(O)c1` [β-thujaplicinol], the IC50 was greater than 300 µM against p66^501BpF/p51 RT and greater than 25 µM in experiment [3]. Further, the “Effect of mutation on β-thujaplicinol sensitivity” value in the experiment on p66^AzF/p51 RT was “little to no effect”.
